From paper PMC7175281, “Polyphenolic Compounds from Lespedeza Bicolor Root Bark Inhibit Progression of Human Prostate Cancer Cells via Induction of Apoptosis and Cell Cycle Arrest” (Biomolecules, 2020)
Entries after “also recorded” stand apart in the source; their conditions may differ.

Key:
[1] = system: 22Rv1 human prostate cancer cells; assay: MTT assay, 22Rv1 cells; type: cell-based; details: treated for 48 h
Protocol: (§1) The human prostate cancer cell lines PC-3 [docetaxel-resistant, androgen-independent, AR-FL(-), AR-V7(-)], 22Rv1 [docetaxel-sensitive, androgen-independent, AR-FL(+), AR-V7(+)], and the human non-cancer fibroblast cell line MRC-9 were used. PC-3 and 22Rv1 were purchased from ATCC (Manassas, VA, USA). MRC-9 cells were kindly donated by Prof. Dr. med. Sonja Loges (University Medical Center Hamburg-Eppendorf, Hamburg, Germany). Cells were cultured according to the manufacturers’ protocol in 10% FBS/RPMI (PC-3 and 22Rv1) or 10% FBS/DMEM (MRC-9) medium.
(§2) In vitro drug sensitivity MTT assay was performed as previously described. In total, 6000 cells/well were seeded in 96-well plates, incubated overnight, and treated with the investigated drugs for 48 h.

[2] = system: MRC-9 human non-cancer fibroblast cells; assay: MTT assay, MRC-9 non-cancer fibroblasts; type: cell-based; details: treated for 48 h
Protocol: as §1, §2

[3] = system: CDK1–CDK9 mRNA in PC-3 cells; assay: qPCR of CDK1-CDK9 mRNA expression; type: cell-based, human; details: 24 h, normalized to GAPDH (Figure 5)
Protocol: The CDKs gene expression was measured using qPCR technique. PC-3 cells were seeded in Petri dishes (1 × 10^6 cells per ø 6 cm dish in 5 mL) in standard culture media, incubated overnight and treated with the investigated drugs in the fresh culture media for 24 h. Cells were harvested using the cell scraper, washed with PBS and homogenized using QIAshredder (QIAGEN, Hilden, Germany). The total RNA was isolated using PureLink® RNA Mini Kit (Invitrogen, Carlsbad, CA, USA) and the on-column DNA digestion using PureLink™ DNase (Invitrogen). Correspondent RNA (2 µg in 30 µL) and was transcribed into cDNA using Maxima First Strand cDNA Synthesis Kit for RT-qPCR (Thermo Scientific, Vilnius, Lithuania). The following qPCR was performed using 2X KAPA SYBR FAST qPCR Master Mix Optimized for Roche LightCycler 480 (KAPA biosystems, Worburn, MA, USA) according to the manufacturer’s protocol. In total, 20 ng of the template cDNA and 2 pmol of primers were used for each reaction. The PCR conditions were 30 s at 95 °C, followed by 40 cycles of 15 s at 95 °C, 5 s at melting temperature (Tm), and 26 s at 72 °C (fluorescence measurement). Melting curve analysis was performed under the following conditions directly after the PCR run: 10 s at 95 °C, 60 s at 65 °C and 1 s at 97 °C. Relative gene expression was calculated using the 2^-∆∆CT method. The expression of CDKs was normalized to GAPDH gene expression. The analysis was performed using primers, purchased from Eurofins MWG-Biotech AG (Ebersberg, Germany).
Due to the significant alterations of the cell cycle, we further investigated the effects of the isolated compounds on the cyclin-dependent kinases (CDKs). These proteins are known to control proliferation as well as some apoptotic processes. We have examined the expression of mRNAs corresponding to the nine most studied CDKs known to be involved in the cell cycle progression of cancer cells, namely, CDK1–CDK9. […] Remarkably, these effects correlated well with the cytotoxicity of the isolated compounds.
Figure 5 Expression of mRNA correspondent to CDK1-9 in PC-3 cells treated with the isolated compounds 1–8 for 24 h. The target gene expression was normalized to GAPDH gene expression. * p ≤ 0.05 (Student’s t-test).

[4] = system: PC-3 human prostate cancer cells; assay: MTT assay, PC-3 cells; type: cell-based; details: for IC50: PC-3 cells, MTT, treated for 48 h; for Selectivity index (MRC-9 vs. PC-3): [IC50 in MRC-9 cells] / [IC50 in PC-3 cells]
Protocol: as §1, §2

PC-3 cells [5] = assay: DNA fragmentation / apoptosis induction by flow cytometry (PI staining, sub-G1); type: cell-based, human; details: PC-3 cells, 0.5, 1, 5 and 10 µM, 24 h (Figure 3)
Protocol: (§3) The effect of the compounds on apoptosis induction and cell cycle progression was analyzed by flow cytometry technique using PI staining as reported before. Cells (0.2 × 10^6 cells/well) were seeded in six-well plates, incubated overnight, and treated with the investigated drugs for 48 h. The cells were further harvested, fixed with 70% EtOH/H2O, stained with propidium iodide (PI), and analyzed using a FACS Calibur machine (BD Bioscience, San Jose, CA, USA). The results were quantified using BD Bioscience Cell Quest Pro software (v.5.2.1., BD Bioscience).
To investigate the mechanism of action contributing to the cytotoxicity in PC-3 cells, we investigated the effects on DNA fragmentation, a well-established marker of cellular apoptosis. Therefore, we evaluated the effects of the isolated compounds at four different concentrations of 0.5 µM, 1 µM, 5 µM, and 10 µM by flow cytometry (Figure 3). […] Therefore, prenylated dimeric flavonoid 8 may either reveal a non-apoptotic character of cell death or a predominantly antiproliferative rather than cytotoxic effect.
Figure 3 Effect of natural compounds on DNA fragmentation of PC-3 cells. Cells were treated with the investigated compounds for 24 h. The effects were analyzed by flow cytometry. Cells detected as sub-G1 population were considered to be apoptotic. Cisplatin (Cis) was used as a positive control. * p ≤ 0.05 (Student’s t-test).

PC-3 cells [6] = assay: Cell cycle progression by flow cytometry (PI staining); type: cell-based, human; details: 24 h (Figure 4)
Protocol: as §3
Next, we examined the effects of the isolated compounds on the cell cycle progression of PC-3 cells. For compounds 1–3, a significant accumulation of the cells in S-phase as well as slight accumulation in G2/M-phase was observed (Figure 4).
Figure 4 Treatment effects on the progression of the cell cycle of PC-3 cells. Cells were treated with the investigated compounds for 24 h. The effects were analyzed by flow cytometry. Cisplatin was used as a positive control. * p ≤ 0.05 (Student’s t-test).

[7] = Homo sapiens, MRC9, MRC-9 cells

| SMILES | IC50 ([1]; Homo sapiens) [µM] | IC50 [2, 7] [µM] | Effect on expression of mRNA corresponding to CDK1-9 [3] | IC50 ([4]; Homo sapiens) [µM] | Selectivity index (MRC-9 vs. PC-3) [4] | Apoptosis induction (DNA fragmentation, sub-G1 population) (PC-3 cells [5]) | Effect on cell cycle progression (PC-3 cells [6]) | IC50 [1] [µM] | IC50 ([2]; MRC-9 cells) [µM] | IC50 [4] [µM] |
| --- | --- | --- | --- | --- | --- | --- | --- | --- | --- | --- |
| CC(C)=CCC/C(C)=C/Cc1c(O)c(O)cc2c1O[C@H]1c3ccc(O)cc3OC[C@@H]21 [Compound 2] | 13.8 | 37.6 | inhibitory effects; also recorded: fairly active | 5.24 | 7.17 |  |  |  |  |  |
| CC(C)=CCC/C(C)=C/Cc1c(O)c(O)cc(C(=O)C(=O)c2ccc(O)cc2O)c1O [Compound 6] | 46.9 | > 50 |  | 19.3 | >2.6 |  |  |  |  |  |
| CC(C)=CCC/C(C)=C/Cc1c(O)c(O)cc2c1O[C@H]1c3cc(CC=C(C)C)c(O)cc3OC[C@@H]21 [Compound 3] | 6.38 | 16.8 | inhibitory effects; also recorded: strongest inhibitory effect | 2.1 | 7.99 | most pronounced apoptosis-inducing effect |  |  |  |  |
| CC(C)=CCC/C(C)=C/Cc1c(O)c(C(=O)c2c(-c3ccc(O)cc3O)oc3c(C/C=C(\C)CCC=C(C)C)c(O)c(O)cc23)cc2c1O[C@H]1c3ccc(O)cc3OC[C@@H]21 [Compound 8, Lespebicolin A] | 17.5 | 23.9 | did not exhibit any pronounced effect on CDKs mRNA expression | 9.24 | 2.59 | apart from structurally different lespebicolin A (8) | could not induce an S-phase cell cycle arrest |  |  |  |
| CC(C)=CCC/C(C)=C/Cc1c(O)c(O)cc2c3c(oc12)-c1ccc(O)cc1OC3 [Compound 1] | 20.1 | 48.5 | inhibitory effects | 6.73 | 7.21 |  |  |  |  |  |
| CC(C)=CCC[C@@]1(C)C=Cc2c(c(O)cc3c2O[C@H]2c4ccc(O)cc4OC[C@@H]32)O1 [Compound 5] | 35.8 | 24.6 |  | 15.2 | 1.62 |  |  |  |  |  |
| COc1cc2c(c(C/C=C(\C)CCC=C(C)C)c1O)O[C@H]1c3ccc(O)cc3OC[C@@H]21 [Compound 7, (6aR,11aR)-8-O-methyl-6a,11a-dihydrolespedezol A2] | 30.5 | 24.4 | did not exhibit this activity | 14.9 | 1.64 |  | G1-phase arrest instead of S-phase arrest |  |  |  |
| CC(C)=CCC[C@]1(C)C=Cc2c(c(O)cc3c2O[C@H]2c4ccc(O)cc4OC[C@@H]32)O1 [Compound 4] | 29.5 | 27.2 |  | 16.4 | 1.66 |  |  |  |  |  |
| N.N.[Cl][Pt][Cl] [Cisplatin, reference compound] |  |  |  |  | 0.72 |  |  | 4.53 | 15.1 | 21 |
